# Measured values taken from ChEMBL document CHEMBL3871282, “Neo-tanshinlactone D-ring modified novel analogues induce apoptosis in human breast cancer cell via DNA damage” (Bioorg Med Chem, 2017).
# pIC50: −log10 of the molar value. The source made the active and inactive calls. No cut-off for these calls is given here.
# Assays:
# [1] = (§1) Cytotoxicity against human MCF7 ER positive, PR positive/negative,HER2 negative cells assessed as cell growth inhibition after 24 hrs by MTT assay; format: functional, cell-based; conditions: MCF7, 24 h
# MCF7 [2] = assay: as §1; format: functional, cell-based
# [3] = Cytotoxicity against human SKBR3 ER negative, PR negative,HER2 positive cells assessed as cell growth inhibition after 24 hrs by MTT assay; format: functional, cell-based; conditions: SK-BR-3, 24 h
# [4] = Cytotoxicity against human HCT116 cells assessed as cell growth inhibition after 24 hrs by MTT assay; format: functional, cell-based; conditions: HCT-116, 24 h
# [5] = Cytotoxicity against human HepG2 cells assessed as cell growth inhibition after 24 hrs by MTT assay; format: functional, cell-based; conditions: HepG2, 24 h
# Bos taurus [6] = organism: Bos taurus; assay: Binding affinity to calf thymus DNA assessed hyperchromic shift at 260 nm up to 1:1 compound to DNA ratio measured by UV-Vis spectrophotometric analysis
# Bos taurus [7] = organism: Bos taurus; assay: Binding affinity to calf thymus DNA assessed as DNA positive band formation at 1:1 compound to DNA ratio by circular dichroism method
# MCF7 [8] = assay: Antiproliferative activity against human MCF7 cells assessed as reduction in colony formation at 8 to 16 nM after 21 days by crystal violet staining based clonogenic assay; format: functional, cell-based
# MCF7 [9] = assay: Binding affinity to DNA in human MCF7 cells assessed as formation of DNA double strand breaks after 24 hrs by neutral comet assay; format: cell-based
# MCF7 [10] = assay: Binding affinity to DNA in human MCF7 cells assessed as formation of nuclear DNA double strand breaks at 12 nM after 24 hrs by DAPI-staining based fluorescence microscopic analysis; format: cell-based
# MCF7 [11] = assay: Induction of DNA double strand breaks in human MCF7 cells assessed as increase in H2AX to gamma-H2AX ratio after 24 hrs by Western blot analysis; format: cell-based
# MCF7 [12] = assay: Induction of DNA double strand breaks in human MCF7 cells assessed as increase in H2AX to gamma-H2AX ratio at near IC50 after 24 hrs by Western blot analysis relative to control; format: cell-based
# MCF7 [13] = assay: Induction of DNA double strand breaks in human MCF7 cells assessed as H2AX phosphorylation at near IC50 after 24 hrs by Western blot analysis; format: cell-based
# MCF7 [14] = assay: Induction of DNA double strand breaks in human MCF7 cells assessed as gamma-H2AX foci at near IC50 after 24 hrs by DAPI staining based immunofluorescence assay; format: cell-based
# MCF7 [15] = assay: Induction of DNA double strand breaks in human MCF7 cells assessed as increase in apoptotic nuclei after 24 hrs by TUNEL assay; format: cell-based
# MCF7 [16] = assay: Disruption of mitochondrial membrane potential in human MCF7 cells assessed as decrease in red/green fluorescence ratio at 8 to 16 nM after 24 hrs by JC1-staining based fluorescent microscopic analysis; format: functional, cell-based
# MCF7 [17] = assay: Induction of apoptosis in human MCF7 cells assessed as early apoptotic cells at 8 nM after 24 hrs by Annexin V-FITC/propidium iodide-dual staining based FACS analysis (reference value: 2.3%); format: functional
# MCF7 [18] = assay: Induction of apoptosis in human MCF7 cells assessed as early apoptotic cells at 12 nM after 24 hrs by Annexin V-FITC/propidium iodide-dual staining based FACS analysis (reference value: 2.3%); format: functional
# MCF7 [19] = assay: Induction of apoptosis in human MCF7 cells assessed as late apoptotic cells at 16 nM after 24 hrs by Annexin V-FITC/propidium iodide-dual staining based FACS analysis (reference value: 0.1%); format: functional
# MCF7 [20] = assay: Induction of DNA double strand breaks in human MCF7 cells assessed as activation of phosphorylated p53 at ser15 residue after 24 hrs immunoblot analysis; format: cell-based
# MCF7 [21] = assay: Induction of DNA double strand breaks in human MCF7 cells assessed as activation of phosphorylated ATM at ser1981 residue after 24 hrs immunoblot analysis; format: cell-based
# MCF7 [22] = assay: Induction of DNA damage-mediated apoptosis in human MCF7 cells assessed as increase in Bax/Bcl2 ratio after 24 hrs by immunoblot analysis; format: cell-based
# MCF7 [23] = assay: Induction of DNA damage-mediated apoptosis in human MCF7 cells assessed as cleaved PARP after 24 hrs by immunoblot analysis; format: cell-based
# MCF7 [24] = assay: Induction of DNA damage-mediated apoptosis in human MCF7 cells assessed as activation of p38 at 12 nM up to 4 hrs by immunoblot analysis; format: cell-based
# MCF7 [25] = assay: Induction of DNA damage-mediated apoptosis in human MCF7 cells assessed as deactivation of Akt at 12 nM after 2 hrs by immunoblot analysis; format: cell-based
# MCF7 [26] = assay: Induction of DNA damage-mediated apoptosis in human MCF7 cells assessed as increase in E2F1 expression in nuclear fraction after 24 hrs by immunoblot analysis; format: cell-based
# MCF7 [27] = assay: Induction of DNA damage-mediated apoptosis in human MCF7 cells assessed as increase in Rb-E2F1 interaction at 8 to 16 nM after 24 hrs by co-immunoprecipitation analysis; format: cell-based
# MCF7 [28] = assay: Induction of DNA damage-mediated apoptosis in human MCF7 cells assessed as Rb hypo-phosphorylation after 24 hrs by immunoblot analysis; format: cell-based
# MCF7 [29] = assay: Induction of DNA damage-mediated apoptosis in human MCF7 cells assessed as downregulation of HDAC1 after 24 hrs by DAPI staining based immunocytochemistry analysis; format: cell-based
# MCF7 [30] = assay: Induction of DNA damage-mediated apoptosis in human MCF7 cells assessed as downregulation of HDAC2 after 24 hrs by DAPI staining based immunocytochemistry analysis; format: cell-based
# MCF7 [31] = assay: Induction of DNA damage-mediated apoptosis in human MCF7 cells assessed as delocalization of HDAC3 from nuclear to cytoplasm at 8 to 16 nM after 24 hrs by DAPI staining based immunocytochemistry analysis; format: cell-based
# Escherichia coli = assay: Induction of Escherichia coli supercoiled pBR322 DNA cleavage assessed as increase in open circular form of DNA band after 3 hrs by ethidium bromide staining based agarose gel electrophoresis method
# MCF7 [32] = assay: Induction of DNA damage-mediated apoptosis in human MCF7 cells assessed as phosphorylation of p53 at Ser-15 residue after 24 hrs by DAPI staining based immunocytochemistry analysis; format: cell-based
# MCF7 [33] = assay: Induction of DNA damage-mediated apoptosis in human MCF7 cells assessed as increase in cleaved caspase-3 level at 8 to 16 nM after 24 hrs by DAPI staining based immunocytochemistry analysis; format: cell-based
# [34] = Cell cycle arrest in human MCF7 cells assessed as G0/G1 phase at 8 nM after 24 hrs by propidium iodide staining based FACS analysis (reference value: 43.9%); format: functional
# [35] = Cell cycle arrest in human MCF7 cells assessed as S phase at 8 nM after 24 hrs by propidium iodide staining based FACS analysis (reference value: 27.5%); format: functional
# [36] = Cell cycle arrest in human MCF7 cells assessed as G2/M phase at 8 nM after 24 hrs by propidium iodide staining based FACS analysis (reference value: 28.3%); format: functional
# [37] = Cell cycle arrest in human MCF7 cells assessed as G0/G1 phase at 12 nM after 24 hrs by propidium iodide staining based FACS analysis (reference value: 43.9%); format: functional
# [38] = Cell cycle arrest in human MCF7 cells assessed as S phase at 12 nM after 24 hrs by propidium iodide staining based FACS analysis (reference value: 27.5%); format: functional
compound,measurement,setting,value
O=c1cc(OCc2ccccc2)c2ccc3ccccc3c2[nH]1,pIC50,[1],7.92
same,growth inhibition (GI),MCF7 [2],Dose-dependent effect
same,pIC50,[3],7.63
same,pIC50,[4],7.36
same,pIC50,[5],4.43
same,Activity,Bos taurus [6],Active
same,Activity,Bos taurus [7],Active
same,Activity,MCF7 [8],Active
same,Activity,MCF7 [9],Dose-dependent effect
same,Activity,MCF7 [10],Active
same,Activity,MCF7 [11],Dose-dependent effect
same,fold change (FC),MCF7 [12],6.3
same,Activity,MCF7 [13],Active
same,Activity,MCF7 [14],29.9%
same,Activity,MCF7 [15],Dose-dependent effect
same,Activity,MCF7 [16],Active
same,Activity,MCF7 [17],10.9%
same,Activity,MCF7 [18],39%
same,Activity,MCF7 [19],5.6%
same,Activity,MCF7 [20],Dose-dependent effect
same,Activity,MCF7 [21],Dose-dependent effect
same,Activity,MCF7 [22],Dose-dependent effect
same,Activity,MCF7 [23],Dose-dependent effect
same,Activity,MCF7 [24],Active
same,Activity,MCF7 [25],Active
same,Activity,MCF7 [26],Active
same,Activity,MCF7 [27],Active
same,Activity,MCF7 [28],Dose-dependent effect
same,Activity,MCF7 [29],Dose-dependent effect
same,Activity,MCF7 [30],Dose-dependent effect
same,Activity,MCF7 [31],Active
same,Activity,Escherichia coli,Dose-dependent effect
same,Activity,MCF7 [32],Dose-dependent effect
same,Activity,MCF7 [33],Active
same,Activity,[34],55.1%
same,Activity,[35],25.8%
same,Activity,[36],19%
same,Activity,[37],58.1%
same,Activity,[38],25.1%
